Results reported in publication PMC11381307 (Frontiers in Pharmacology, 2024).

Legend:
[1] = molecular target: T1, OATP1B1 (Homo sapiens, UniProt Q9Y6L6); assay: Inhibitory effect of seven drugs on OATP1B1-mediated E217βG uptake; type: cell-based; settings: 50 μM or 50 μg/mL; N = 2
T1 construct: host or cells: HEK293
T1 sequence (Q9Y6L6 1-691): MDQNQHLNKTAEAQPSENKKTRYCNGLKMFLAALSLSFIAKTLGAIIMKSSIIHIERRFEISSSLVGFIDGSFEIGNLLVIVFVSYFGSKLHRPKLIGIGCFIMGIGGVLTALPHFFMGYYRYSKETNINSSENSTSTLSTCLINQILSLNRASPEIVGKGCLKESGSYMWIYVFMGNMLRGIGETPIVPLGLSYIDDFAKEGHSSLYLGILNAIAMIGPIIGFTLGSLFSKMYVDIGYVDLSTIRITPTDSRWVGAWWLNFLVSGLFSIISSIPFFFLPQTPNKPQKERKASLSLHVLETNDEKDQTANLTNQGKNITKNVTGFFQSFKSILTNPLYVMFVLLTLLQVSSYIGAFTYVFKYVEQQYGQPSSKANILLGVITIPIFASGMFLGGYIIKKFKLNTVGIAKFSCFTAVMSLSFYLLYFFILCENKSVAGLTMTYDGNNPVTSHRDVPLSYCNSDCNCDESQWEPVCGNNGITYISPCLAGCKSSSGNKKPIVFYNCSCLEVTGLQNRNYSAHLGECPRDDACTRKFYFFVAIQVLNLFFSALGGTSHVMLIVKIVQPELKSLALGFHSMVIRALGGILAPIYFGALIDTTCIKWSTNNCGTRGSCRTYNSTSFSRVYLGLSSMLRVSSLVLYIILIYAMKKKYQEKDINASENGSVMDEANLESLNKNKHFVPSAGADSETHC
Experimental: (§1) Note: the peak area of probe substrate transported by MRP2, OAT3, OATP1B1 or OATP1B3 was determined by LC-MS method. Then, the relative uptake rate of probe substrate in the presence of seven drugs was calculated by using equation 7 or 11. When the relative uptake rate was decreased by more than 50%, indicating the potential inhibitory of drug on the transporter.

[2] = molecular target: T2, OATP1B3 (Homo sapiens, UniProt Q9NPD5); assay: Inhibitory effect of seven drugs on OATP1B3-mediated E217βG uptake; type: cell-based; settings: 50 μM or 50 μg/mL; N = 2
T2 construct: host or cells: HEK293
T2 sequence (Q9NPD5 1-702): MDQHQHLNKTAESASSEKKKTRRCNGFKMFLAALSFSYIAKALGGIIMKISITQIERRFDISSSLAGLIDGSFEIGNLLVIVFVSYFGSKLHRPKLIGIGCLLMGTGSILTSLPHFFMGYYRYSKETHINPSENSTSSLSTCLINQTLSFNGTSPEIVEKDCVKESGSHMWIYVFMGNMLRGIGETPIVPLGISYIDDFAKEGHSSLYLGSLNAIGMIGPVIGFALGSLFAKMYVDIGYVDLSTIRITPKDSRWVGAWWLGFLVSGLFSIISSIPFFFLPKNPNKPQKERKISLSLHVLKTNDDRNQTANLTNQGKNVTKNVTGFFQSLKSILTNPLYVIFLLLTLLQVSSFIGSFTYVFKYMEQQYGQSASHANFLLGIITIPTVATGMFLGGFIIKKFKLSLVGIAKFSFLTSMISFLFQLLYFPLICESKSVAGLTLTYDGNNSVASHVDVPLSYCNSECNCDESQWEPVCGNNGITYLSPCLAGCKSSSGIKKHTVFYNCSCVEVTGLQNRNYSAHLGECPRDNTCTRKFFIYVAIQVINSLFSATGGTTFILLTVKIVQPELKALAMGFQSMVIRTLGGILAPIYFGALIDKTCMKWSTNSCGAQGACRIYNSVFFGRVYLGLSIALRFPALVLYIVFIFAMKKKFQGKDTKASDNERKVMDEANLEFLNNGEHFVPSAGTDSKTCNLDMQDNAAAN
Experimental: as §1

[3] = molecular target: T3, OAT3 (Homo sapiens, UniProt Q8TCC7); assay: Inhibitory effect of seven drugs on OAT3-mediated ES uptake; type: cell-based; design: host or cells: HEK293; settings: 50 μM or 50 μg/mL; N = 2
T3 sequence (Q8TCC7 1-542): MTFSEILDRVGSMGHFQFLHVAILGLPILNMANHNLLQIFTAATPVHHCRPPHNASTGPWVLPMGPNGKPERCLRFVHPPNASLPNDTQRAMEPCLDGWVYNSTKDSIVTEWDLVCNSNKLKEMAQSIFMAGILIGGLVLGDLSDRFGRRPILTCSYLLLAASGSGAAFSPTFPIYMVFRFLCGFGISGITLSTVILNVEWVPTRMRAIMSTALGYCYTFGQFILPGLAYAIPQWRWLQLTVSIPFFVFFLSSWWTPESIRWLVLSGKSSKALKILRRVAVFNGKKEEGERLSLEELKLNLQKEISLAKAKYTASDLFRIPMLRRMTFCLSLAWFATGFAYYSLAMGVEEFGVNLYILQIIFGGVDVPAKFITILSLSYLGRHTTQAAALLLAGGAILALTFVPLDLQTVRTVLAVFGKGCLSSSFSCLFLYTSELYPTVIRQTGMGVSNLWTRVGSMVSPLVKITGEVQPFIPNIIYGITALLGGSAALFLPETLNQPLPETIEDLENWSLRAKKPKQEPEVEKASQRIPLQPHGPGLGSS
Experimental: as §1

[4] = molecular target: MRP2 (Homo sapiens, UniProt Q92887); assay: Inhibitory effect of seven drugs on MRP2-mediated E217βG uptake (vesicles); type: biochemical; design: purchased GenoMembrane (Tokyo, Japan) Product No. 0001; settings: 50 μM or 50 μg/mL; N = 2
MRP2, sequence (Q92887 whole entry): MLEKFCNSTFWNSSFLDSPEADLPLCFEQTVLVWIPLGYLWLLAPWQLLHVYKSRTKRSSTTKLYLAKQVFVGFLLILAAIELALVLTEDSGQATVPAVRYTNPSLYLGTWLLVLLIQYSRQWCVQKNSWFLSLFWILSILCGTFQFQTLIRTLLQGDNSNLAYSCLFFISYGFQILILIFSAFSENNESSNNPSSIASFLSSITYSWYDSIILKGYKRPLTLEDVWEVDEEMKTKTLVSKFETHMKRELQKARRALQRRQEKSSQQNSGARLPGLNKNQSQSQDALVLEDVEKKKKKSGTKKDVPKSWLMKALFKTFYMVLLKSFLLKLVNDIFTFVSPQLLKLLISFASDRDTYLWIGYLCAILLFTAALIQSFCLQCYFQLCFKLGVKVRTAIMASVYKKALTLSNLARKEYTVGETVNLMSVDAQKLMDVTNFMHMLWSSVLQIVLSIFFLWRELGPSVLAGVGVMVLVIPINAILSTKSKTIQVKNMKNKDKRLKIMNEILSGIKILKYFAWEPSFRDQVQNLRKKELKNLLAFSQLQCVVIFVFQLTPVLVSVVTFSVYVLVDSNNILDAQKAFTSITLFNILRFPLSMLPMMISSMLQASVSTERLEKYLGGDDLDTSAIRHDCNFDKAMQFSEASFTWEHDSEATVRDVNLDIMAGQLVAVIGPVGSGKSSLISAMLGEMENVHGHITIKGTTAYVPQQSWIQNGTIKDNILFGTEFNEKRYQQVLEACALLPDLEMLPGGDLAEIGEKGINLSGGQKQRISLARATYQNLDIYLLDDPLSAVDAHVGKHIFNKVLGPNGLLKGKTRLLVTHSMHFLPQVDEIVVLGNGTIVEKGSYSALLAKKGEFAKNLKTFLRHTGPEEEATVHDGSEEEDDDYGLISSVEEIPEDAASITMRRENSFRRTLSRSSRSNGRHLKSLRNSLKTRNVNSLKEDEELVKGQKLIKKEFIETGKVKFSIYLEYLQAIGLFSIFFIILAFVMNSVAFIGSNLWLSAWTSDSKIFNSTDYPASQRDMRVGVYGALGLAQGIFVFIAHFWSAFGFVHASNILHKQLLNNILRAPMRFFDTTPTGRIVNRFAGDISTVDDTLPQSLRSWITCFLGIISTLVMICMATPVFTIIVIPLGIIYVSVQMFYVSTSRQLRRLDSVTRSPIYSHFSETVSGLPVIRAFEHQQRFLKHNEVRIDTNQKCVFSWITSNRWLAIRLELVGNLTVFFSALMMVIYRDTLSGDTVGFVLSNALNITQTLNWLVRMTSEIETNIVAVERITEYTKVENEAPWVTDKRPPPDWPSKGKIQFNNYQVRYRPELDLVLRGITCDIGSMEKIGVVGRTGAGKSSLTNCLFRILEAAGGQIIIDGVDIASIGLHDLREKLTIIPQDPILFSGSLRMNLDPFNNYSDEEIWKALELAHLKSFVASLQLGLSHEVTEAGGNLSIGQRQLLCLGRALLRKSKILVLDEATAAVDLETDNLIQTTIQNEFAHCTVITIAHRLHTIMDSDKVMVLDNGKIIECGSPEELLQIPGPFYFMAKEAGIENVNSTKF
Experimental: Briefly, 10 μL of vesicle membranes and 5 μL of Reagent G were mixed and pre-incubated with 10 μL of the compounds or Buffer A2 (used as no compound-treatment control [NC]) at 37°C for 5 min. […] The two mixtures were mixed before the incubation and then incubated for an additional 5 min. […]
Regarding the inhibition assay, the methods used to calculate the transported activity and UR were similar to those used for the substrate assay. However, please refer to the SLC inhibition assay for the equations for calculating the UR percentages relative to the NC and IC50 values of compounds on MRP2 activity and MRP2-mediated MPAG transport.
as §1

[5] = molecular target: T3, OAT3; assay: Transporter substrate study using HEK293-OAT3 cells
[6] = cited from earlier work
[7] = test system: UGT; assay: Human hepatocyte UGT induction study, conversion of MPA to MPAG; type: cell-based; settings: for formation of MPAG, % of NC (Mean): 96 h treatment
Experimental: Cryopreserved human hepatocytes were recovered in a pre-warmed incubation medium, diluted to a viable cell density (∼0.7 × 10^6 cells/mL) using a plating medium, followed by the addition of 100 μL hepatocytes into each well of a collagen I-coated 96-well plate. The cell monolayer was formed after an overnight incubation period at 37°C under 5%CO2. The plating medium was then replaced with an incubation medium for further culture. On the second day, an incubation medium containing different concentrations of either compound, the inducer omeprazole (final concentration of 50 μM), or vehicle (0.1% [v/v] dimethyl sulfoxide [DMSO]). […] At the end of the incubation period, the medium was replaced with a substrate for UGT and MPA. Following a further incubation of 15 or 30 min at 37°C under 5% CO2, 100 μL of the reaction medium was transferred to 400 μL of ice-cold methanol containing internal standard (IS) to terminate the reaction. Finally, the supernatant was collected after centrifugation at 4,000 rpm for 10 min and analyzed for glucuronide formation using liquid chromatography-mass spectrometry (LC-MS).
The formation of glucuronide metabolites, as determined with LC-MS, was used to calculate the formation rate linked to enzyme activity according to Equation 1. Formation rate pmol/10^6 cells/min=amount of glucuronide metabolites formation pmol/number of cells 10^6 cells×incubation time min (1)
The percentage of enzyme activity relative to the NC (%) was determined using Equation 2. Relative enzyme activity % of NC=formation rate in the compound−treated group/that in NC×100 (2)

Row | Compound | Relative net uptake rate (% of NC), Mean, OATP1B1-mediated E217βG uptake [1] | Relative net uptake rate (% of NC), Mean, OATP1B3-mediated E217βG uptake [2] | Relative net uptake rate (% of NC), Mean, OAT3-mediated ES uptake [3] | Relative net uptake rate (% of NC), Mean, MRP2-mediated E217βG uptake [4] | also measured
1 | CCCCC[C@H](O)/C=C/[C@H]1[C@H](O)CC(=O)[C@@H]1CCCCCCC(=O)O [Alprostadil, alprostadil] | 33.6 % of NC | 59.6 % of NC | 52.6 % of NC | 137 % of NC | –
2 | CCN1CCN(C(=O)N[C@@H](C(=O)N[C@@H]2C(=O)N3C(C(=O)O)=C(CSc4nnnn4C)CS[C@H]23)c2ccc(O)cc2)C(=O)C1=O [Cefoperzone, cefoperazone] | 168 % of NC | 67.5 % of NC | – | 104 % of NC | –
3 | C[C@]12CC[C@@H]3c4ccc(OS(=O)(=O)O)cc4CC[C@H]3[C@@H]1CCC2=O [ES, estrone-3-sulfate] | – | – | – | – | uptake ratio (UR) of probe substrate mediated by OAT3 ([5]; after probenecid treatment): 3.26; uptake ratio (UR) of probe substrate mediated by OAT3 ([5]; without inhibitor): 7.37
4 | COc1c(C)c2c(c(O)c1C/C=C(\C)CCC(=O)OCCN1CCOCC1)C(=O)OC2 [MMF, mycophenolate mofetil] | – | – | – | – | fraction of the absorbed drug eliminated in the urine ([6]; ref van Schaik et al., 2009): approximately 87%
5 | COc1c(C)c2c(c(O)c1C/C=C(\C)CCC(=O)O)C(=O)OC2 [MPA, mycophenolic acid] | – | – | – | – | exposure lower in the early phase after transplantation than in the stable period ([6]; similar dose of MMF, ref Shaw et al., 2003): 30%–50%
6 | C[C@@H](O)[C@H]1C(=O)N2C(C(=O)O)=C(S[C@@H]3CN[C@H](C(=O)N(C)C)C3)[C@H](C)[C@H]12 [Meropenem, meropenem] | 95.9 % of NC | 69.9 % of NC | 26.6 % of NC | 137 % of NC | –
7 | O=C(c1cc(Cc2n[nH]c(=O)c3ccccc23)ccc1F)N1CCN(C(=O)C2CC2)CC1 [Olaparib, olaparib] | 99.3 % of NC | 72.4 % of NC | 70.2 % of NC | 136 % of NC | –
8 | COc1ccnc(C[S+]([O-])c2nc3ccc(OC(F)F)cc3[nH]2)c1OC (centres unmarked) [Pantoprazole, pantoprazole] | 115 % of NC | 67.7 % of NC | 87.2 % of NC | 134 % of NC | –
9 | C[C@]12C=CC(=O)C=C1CC[C@@H]1[C@@H]2[C@@H](O)C[C@@]2(C)[C@H]1CC[C@]2(O)C(=O)CO [prednisolone] | – | – | – | – | formation of MPAG, % of NC (Mean) ([7]; 0.5 μM): 101 % of NC; formation of MPAG, % of NC (Mean) ([7]; 1 μM): 114 % of NC; formation of MPAG, % of NC (Mean) ([7]; 5 μM): 106 % of NC; formation of MPAG, % of NC (Mean) ([7]; 10 μM): 101 % of NC; formation of MPAG, % of NC (Mean) ([7]; 50 μM): 126 % of NC; formation of MPAG, % of NC (Mean) ([7]; 100 μM): 129 % of NC; change in MPAG formation from MPA (in words) ([7]; 96 h incubation of human hepatocytes): slight increase
10 | CCCN(CCC)S(=O)(=O)c1ccc(C(=O)O)cc1 [probenecid] | – | – | – | – | reduction of OAT3-mediated MPAG uptake ([5]; 10 μM MPAG): 90.8%; reduction of OAT3-mediated ES uptake ([5]; probe substrate ES): 69.4%
